# Assay results: US20180147206A1, “ACTIVATION OF NEURONAL STORE-OPERATED CALCIUM ENTRY PATHWAY FOR THE TREATMENT OF ALZHEIMER'S DISEASE” (The Board of Regents of the University of Texas System, priority 2015, published 2018)
# Legend:
# [1] = tested on: spine nSOC channels; experiment: GCamp5.3 Ca2+ imaging of synaptic nSOC in cultured hippocampal neurons; format: cell-based, mouse
# [2] = tested on: mushroom spines of hippocampal neurons; experiment: Dendritic spine analysis in primary hippocampal neural cultures; format: cell-based, mouse; details: for mushroom spine loss: 30 nM for 16 hours
# Description: FIGS. 4A-E. NSN21778 and Hyperforin rescue synaptic nSOC and mushroom spine loss in AD hippocampal neurons. (FIG. 4A) Chemical structure of NSN21778 and Hyperforin. (FIG. 4B) Time-course of GCaMP5.3 fluorescence signal changes in the spines of wild-type, PS1KI and APPKI hippocampal neurons. The time of extracellular Ca^2+ re-addition is indicated by a black bar above the traces. 100 μM DHPG was added 50 sec prior to Ca^2+ re-addition. The results are shown for control (CON) neurons and for neurons pretreated with 300 nM NSN21778 (+NSN) or 300 nM Hyperforin (+Hyp) for 30 min as indicated. For each experimental group individual spine (grey) and average (red) fluorescence traces are shown. (FIG. 4C) The average nSOC spine peak amplitude is shown for each group of cells shown on panel B. The mean AF/Fo signals for each group and presented as mean±SE (n≥45 spines). ***, p <0.001. (FIG. 4D) Confocal images of wild-type, PS1KI and APPKI hippocampal neurons transfected with TD-Tomato and fixed at DIV15-16. The images are shown for control neurons (CON) and for neurons treated with 30 nM NSN21778 (+NSN) or 30 nM Hyperforin (+Hyp) for 16 hours prior to fixation. Scale bar is 10 μm. (FIG. 4E) The average fraction of mushroom spines for each group of cells shown on FIG. 4D is presented as mean±SE (n≥18 neurons). ***, p <0.001.
# FIGS. 5A-E. TRPC6 is a molecular target for NSN21778 and Hyperforin. (FIGS. 5A-B) Time course of Fura-2 Ca^2+ signals is shown for HEK293 cells transfected with EGFP plasmid (GFP) or combination of EGFP and TRPC6 plasmids (TRPC6). Cells were incubated in ACSF media containing 2 mM Ca^2+. In experiments shown in FIG. 5B, cells were moved to modified ACSF media containing 0.1 mM Ca^2+ for 2 min and then returned to the media containing 2 mM Ca^2+ with addition of 100 μM OAG. The time of addition of 1 μM Hyperforin (Hyp) or NSN21778 (NSN) is indicated by red bars above the Fura-2 traces. For each experimental group individual spine (grey) and average (red) fluorescence traces are shown. (FIG. 5C) The average Ca^2+ influx peak is shown for experiments presented on FIGS. 5A-B as mean±SE (n≥81). (FIG. 5D) Confocal images of wild-type and PS1KI hippocampal neurons transfected with TD-Tomato and fixed at DIV15-16. The neurons were infected with lentiviruses encoding control RNAi (siCtrl), RNAi against TRPC6 (siT6) or RNAi against Orai2 (siO2). The images are shown for no drug treated neurons (CON) and for neurons treated with 30 nM NSN21778 (+NSN) or 30 nM Hyperforin (+Hyp) for 16 hours prior to fixation. Scale bar is 10 μm. No drug treated group of wild-type and PS1KI neurons is from the same experiment as shown on FIG. 2A-J. (FIG. 5E) The average fraction of mushroom spines for each group of cells shown on panel A is presented as mean±SE (n≥19 neurons). ***, p <0.001.
# Dendritic Spine Analysis in Primary Hippocampal Neural Cultures. The hippocampal cultures of PS1KI, APPKI and WT mice were established from postnatal day 0-1 pups and maintained in culture as the inventors described previously [Zhang, 2010 #5733]. For assessment of synapse morphology, hippocampal cultures were transfected with TD-Tomato plasmid at DIV7 using the calcium phosphate method and fixed (4% formaldehyde, 4% sucrose in PBS, pH 7.4) at DIV15-16. A Z-stack of optical section was captured using 100× objective with a confocal microscope (Carl Zeiss Axiovert 100M with LSM510). 18-20 cultured neurons from three batches of cultures were used for quantitative analysis per genotype. Quantitative analysis for dendritic spines was performed by using NeuronStudio software package [Rodriguez, 2008 #6276]. To classify the shape of neuronal spines in culture, the inventors adapted an algorithm from published method [Rodriguez, 2008 #6276]. In classification of spine shapes the inventors used the following cutoff values: aspect ratio for thin spines (AR_thin(crio))=2.5, head to neck ratio (HNR(crit))=1.4, and head diameter (HD(crit))=0.5 μm. […]
# [3] = target: T1, TRPC6 (Homo sapiens, UniProt Q9Y210); experiment: Fura-2 Ca2+ imaging in TRPC6-transfected HEK293 cells; format: cell-based; details: for Ca2+ influx: 1 μM; for Ca2+ influx response: TRPC6-transfected cells, 100 μM
# T1 construct: expressed in transfected cells; host or cells: HEK293
# T1 sequence (Q9Y210 1-931): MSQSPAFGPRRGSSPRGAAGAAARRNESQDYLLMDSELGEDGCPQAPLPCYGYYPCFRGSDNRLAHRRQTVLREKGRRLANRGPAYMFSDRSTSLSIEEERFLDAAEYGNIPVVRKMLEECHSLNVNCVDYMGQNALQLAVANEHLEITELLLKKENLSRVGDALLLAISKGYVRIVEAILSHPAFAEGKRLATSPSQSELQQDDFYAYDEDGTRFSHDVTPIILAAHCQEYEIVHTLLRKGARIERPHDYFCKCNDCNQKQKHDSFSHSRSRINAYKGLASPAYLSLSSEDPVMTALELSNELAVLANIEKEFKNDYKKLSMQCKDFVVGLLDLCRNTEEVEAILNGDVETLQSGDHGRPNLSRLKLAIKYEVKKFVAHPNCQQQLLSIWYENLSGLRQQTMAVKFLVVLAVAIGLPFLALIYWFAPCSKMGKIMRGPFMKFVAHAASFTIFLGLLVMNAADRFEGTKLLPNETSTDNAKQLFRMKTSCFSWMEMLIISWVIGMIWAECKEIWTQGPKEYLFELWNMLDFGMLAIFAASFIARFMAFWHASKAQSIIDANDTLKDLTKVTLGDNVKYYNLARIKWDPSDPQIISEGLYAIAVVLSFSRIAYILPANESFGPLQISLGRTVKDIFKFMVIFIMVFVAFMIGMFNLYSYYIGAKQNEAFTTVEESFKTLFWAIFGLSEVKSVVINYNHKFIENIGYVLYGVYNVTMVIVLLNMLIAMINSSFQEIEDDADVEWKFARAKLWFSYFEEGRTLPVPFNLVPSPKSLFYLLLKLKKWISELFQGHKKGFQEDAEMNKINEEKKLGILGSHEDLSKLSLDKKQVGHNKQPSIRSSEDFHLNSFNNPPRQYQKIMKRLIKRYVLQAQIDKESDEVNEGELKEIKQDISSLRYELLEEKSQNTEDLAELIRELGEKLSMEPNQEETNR
# [4] = tested on: hippocampal neurons
# [5] = tested on: AβPPSwe/PSEN1ΔE9 (AβPP/PS1) transgenic mice; details: previous studies; cited from earlier work
# [6] = tested on: TRPC3/6/7 channels; details: recent study (Montecinos-Oliva et al., 2014); cited from earlier work
compound,measurement,setting,value
CC(C)=CCC[C@]1(C)[C@@H](CC=C(C)C)C[C@@]2(CC=C(C)C)C(=O)[C@]1(C(=O)C(C)C)C(=O)C(CC=C(C)C)=C2O [Hyperforin],spine nSOC,"[1]; PS1KI and APPKI hippocampal neurons, 300 nM applied prior to Ca2+ re-addition",rescued spine nSOC
same,spine nSOC,"[1]; wild-type spines, 300 nM",no significant effect
same,mushroom spines,"[2]; PS1KI and APPKI neurons, 30 nM for 16 hr",complete rescue
same,mushroom spine loss,[2]; PS1KI cultures infected with control RNAi lentiviruses,rescued mushroom spine loss
same,mushroom spine loss,[2]; PS1KI hippocampal neurons following knockdown of TRPC6 or Orai2,failed to rescue mushroom spine loss
same,mushroom spine loss,[2]; wild-type neurons with knockdown of TRPC6 or Orai2,failed to rescue
same,fraction of mushroom spines,"[2]; wild-type neurons, 30 nM for 16 hr",no significant effect
same,Ca2+ influx,"[3]; TRPC6-transfected HEK293 cells, 2 mM Ca2+",activated Ca^2+ influx
same,Ca2+ influx,[3]; control HEK293 cells transfected with EGFP plasmid,not in control cells
same,"toxicity, acute",[4],very large Ca^2 elevations and toxicity
same,"toxicity, overnight",[4],neuronal toxicity in some batches
same,beta-amyloid neurotoxicity and spatial memory impairments,[5],able to prevent
CCCCCCCC/C=C/CCCCCCCC(=O)OCC(CO)OC(C)=O (stereo not shown) [OAG],Ca2+ responses in spines,[1]; direct application to hippocampal neuronal cultures (data not shown),induced Ca^2+ responses in just a few spines
same,Ca2+ influx response,[3]; standard recording conditions (data not shown),highly variable responses
same,Ca2+ influx response,[3]; stores partially depleted by 0.1 mM Ca2+ preincubation,more consistent responses
tetrahydrohyperforin [IDN5706],Aβ-induced synaptic plasticity defects,[6],rescued
